Broadly, the IC50 is the point on the concentration scale where inhibition reaches its midpoint.

The values below come from patent publication US9382258B2, “Agents for treating pain and uses thereof” (AbbVie Inc., priority 2012, dated 2016).

Experiment [1] relates to Sprague Dawley rats (CCI neuropathic pain). The experiment is described as follows: Chronic constriction injury (CCI) model of neuropathic pain, tactile allodynia by von Frey filaments. The class given is in vivo, rat. Conditions: male Sprague Dawley rats, 10 mg/kg orally in 10% dimethyl sulfoxide/polyethylene glycol, mechanical allodynia 60 minutes after administration, calculated from log g paw withdrawal threshold. Here is the method: Test compounds can be evaluated for analgesic effect in an in vivo model of neuropathic pain. Specifically, animals were prepared for testing, by use of a surgical procedure that induces neuropathic pain in one paw. IACUC guidelines for rodent survival surgery were followed. All surgical procedures were conducted on a clean, uncluttered surgical station. The area was wiped with a 70% ethanol solution before and after use. All instruments were sterilized by either autoclave or chemical sterilant (such as 2% glutaraldehyde>10 hours). Surgeons wore sterile gloves (for the initial procedure), clean lab coat or scrubs, hairnet or cap, and a half-mask respirator (when not working under a hood). Surgeons thoroughly washed their hands prior to donning sterile gloves. Gloves were disinfected in-between animals by cleansing with povidone iodine, chlorhexidine or 70% alcohol for at least 30 seconds. If multiple surgeries were performed, the instruments were cleaned and sterilized between procedures with hot glass beads (>10 seconds). To prevent thermal or chemical burns, the instruments were cooled by rinsing in sterile saline before use.
Male, Sprague Dawley® rats, 175-200 g were used for surgeries. To minimize post-operative dehydration/maintain blood volume during the surgery, warmed sterile saline or Lactate Ringers solution at 10-15 mL/kg was administered subcutaneously immediately before or after surgery. This facilitates better renal function and presumably anesthesia product excretion post surgery. For all surgical procedures, anesthesia was induced with 4-5% isoflurane. Anesthesia was maintained during surgery with 1-3% isoflurane. Following induction, the surgical site was carefully shaved and the exposed area was aseptically prepared with povidone-iodine scrub solution and 70% ethanol 2-3 times.
Chronic constriction injury (CCI), a model of neuropathic pain, was produced by following the method of Bennett and Xie (Bennett, G., et al. Pain, 1988, 33, 87-107). After site sterilization and anesthetic procedures outline above were completed, a 1.5 cm incision is made at the mid-thigh level to expose the biceps femoris and gluteous superficialis (right side), which were then separated by blunt dissection. The common sciatic nerve was exposed, isolated, and loosely ligated by four 5-0 chromic gut ligatures with <1 mm spacing between each. The surgical site was closed in layers—muscle is closed with 6.0 absorbable sutures, and the skin closed with wound clips. Animals were allowed to recover on a warming plate and were returned to their home cages when fully ambulatory. Animals were not be used for testing until at least 10 days following surgery.
To measure mechanical sensitivity, tactile allodynia was measured using calibrated von Frey filaments (Stoelting, Wood Dale, Ill.) as described by Chaplan et al. (Chaplan S., et al. J of Neuroscience Methods 1994, 53, 55-63). Filament strengths used were: 0.4, 0.6, 1.0, 2, 4, 6, 8, and 15 g. Rats were placed into inverted individual plastic containers (20×12.5×20 cm) on top of a suspended wire mesh grid, and acclimated to the test chambers for at least 20 minutes. Filaments were applied perpendicular to the mid-plantar paw surface with enough force to cause slight buckling and held in place for 6-8 seconds. Positive responses included an abrupt withdrawal of the paw from the stimulus or flinching behavior immediately following removal of the stimulus. The maximum force applied was 15 g. The 50% paw withdrawal threshold (PWT) was calculated in grams (g) using the up-down method of Dixon (Dixon W. Ann Rev Pharmacol Toxicol 1980, 20, 441-462). […] All compounds were orally administered at 10 mg/kg in 10% dimethyl sulfoxide/polyethylene glycol at a volume of 2.0 mL/kg, and mechanical allodynia was determined 60 minutes following compound administration
The data are reported as log g values and the percentage of maximum possible effect (% MPE) is calculated using log g values with the Formula: […]

For another experiment, the target named is T1, human Cav2.2 (Homo sapiens, UniProt Q00975).
T1 construct: cells endogenously expressing human Cav2.2; endogenous in cells; host or cells: IMR32 cells
The experiment can be described thus: Calcium flux (FLIPR, Calcium 4 dye) in IMR32 cells endogenously expressing human Cav2.2. The class given is cell-based. Conditions: 60 minute pre-incubation, 2 μM nifedipine to block L-type channels, depolarized with 80 mM KCl, 5 mM CaCl2, average of n≥2 runs unless marked *. In short, it runs like this:
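IMR32 cells were dye-loaded 1.5 h at room temperature in HBSS/HEPES pH 7.4, then preincubated 60 min with compounds (10 μM to 0.1 nM) plus 1.3 mM CaCl2 and 2 μM nifedipine. Influx triggered by 5 mM CaCl2 with 80 mM KCl depolarization, FLIPR read; IC50 from sigmoidal fit of percent inhibition, usually n≥2.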
Background: Calcium assays in cells follow changes in intracellular calcium, usually with a dye or a luminescent sensor.

SMILES strings stand for the structures.

T1 sequence (Q00975 whole entry): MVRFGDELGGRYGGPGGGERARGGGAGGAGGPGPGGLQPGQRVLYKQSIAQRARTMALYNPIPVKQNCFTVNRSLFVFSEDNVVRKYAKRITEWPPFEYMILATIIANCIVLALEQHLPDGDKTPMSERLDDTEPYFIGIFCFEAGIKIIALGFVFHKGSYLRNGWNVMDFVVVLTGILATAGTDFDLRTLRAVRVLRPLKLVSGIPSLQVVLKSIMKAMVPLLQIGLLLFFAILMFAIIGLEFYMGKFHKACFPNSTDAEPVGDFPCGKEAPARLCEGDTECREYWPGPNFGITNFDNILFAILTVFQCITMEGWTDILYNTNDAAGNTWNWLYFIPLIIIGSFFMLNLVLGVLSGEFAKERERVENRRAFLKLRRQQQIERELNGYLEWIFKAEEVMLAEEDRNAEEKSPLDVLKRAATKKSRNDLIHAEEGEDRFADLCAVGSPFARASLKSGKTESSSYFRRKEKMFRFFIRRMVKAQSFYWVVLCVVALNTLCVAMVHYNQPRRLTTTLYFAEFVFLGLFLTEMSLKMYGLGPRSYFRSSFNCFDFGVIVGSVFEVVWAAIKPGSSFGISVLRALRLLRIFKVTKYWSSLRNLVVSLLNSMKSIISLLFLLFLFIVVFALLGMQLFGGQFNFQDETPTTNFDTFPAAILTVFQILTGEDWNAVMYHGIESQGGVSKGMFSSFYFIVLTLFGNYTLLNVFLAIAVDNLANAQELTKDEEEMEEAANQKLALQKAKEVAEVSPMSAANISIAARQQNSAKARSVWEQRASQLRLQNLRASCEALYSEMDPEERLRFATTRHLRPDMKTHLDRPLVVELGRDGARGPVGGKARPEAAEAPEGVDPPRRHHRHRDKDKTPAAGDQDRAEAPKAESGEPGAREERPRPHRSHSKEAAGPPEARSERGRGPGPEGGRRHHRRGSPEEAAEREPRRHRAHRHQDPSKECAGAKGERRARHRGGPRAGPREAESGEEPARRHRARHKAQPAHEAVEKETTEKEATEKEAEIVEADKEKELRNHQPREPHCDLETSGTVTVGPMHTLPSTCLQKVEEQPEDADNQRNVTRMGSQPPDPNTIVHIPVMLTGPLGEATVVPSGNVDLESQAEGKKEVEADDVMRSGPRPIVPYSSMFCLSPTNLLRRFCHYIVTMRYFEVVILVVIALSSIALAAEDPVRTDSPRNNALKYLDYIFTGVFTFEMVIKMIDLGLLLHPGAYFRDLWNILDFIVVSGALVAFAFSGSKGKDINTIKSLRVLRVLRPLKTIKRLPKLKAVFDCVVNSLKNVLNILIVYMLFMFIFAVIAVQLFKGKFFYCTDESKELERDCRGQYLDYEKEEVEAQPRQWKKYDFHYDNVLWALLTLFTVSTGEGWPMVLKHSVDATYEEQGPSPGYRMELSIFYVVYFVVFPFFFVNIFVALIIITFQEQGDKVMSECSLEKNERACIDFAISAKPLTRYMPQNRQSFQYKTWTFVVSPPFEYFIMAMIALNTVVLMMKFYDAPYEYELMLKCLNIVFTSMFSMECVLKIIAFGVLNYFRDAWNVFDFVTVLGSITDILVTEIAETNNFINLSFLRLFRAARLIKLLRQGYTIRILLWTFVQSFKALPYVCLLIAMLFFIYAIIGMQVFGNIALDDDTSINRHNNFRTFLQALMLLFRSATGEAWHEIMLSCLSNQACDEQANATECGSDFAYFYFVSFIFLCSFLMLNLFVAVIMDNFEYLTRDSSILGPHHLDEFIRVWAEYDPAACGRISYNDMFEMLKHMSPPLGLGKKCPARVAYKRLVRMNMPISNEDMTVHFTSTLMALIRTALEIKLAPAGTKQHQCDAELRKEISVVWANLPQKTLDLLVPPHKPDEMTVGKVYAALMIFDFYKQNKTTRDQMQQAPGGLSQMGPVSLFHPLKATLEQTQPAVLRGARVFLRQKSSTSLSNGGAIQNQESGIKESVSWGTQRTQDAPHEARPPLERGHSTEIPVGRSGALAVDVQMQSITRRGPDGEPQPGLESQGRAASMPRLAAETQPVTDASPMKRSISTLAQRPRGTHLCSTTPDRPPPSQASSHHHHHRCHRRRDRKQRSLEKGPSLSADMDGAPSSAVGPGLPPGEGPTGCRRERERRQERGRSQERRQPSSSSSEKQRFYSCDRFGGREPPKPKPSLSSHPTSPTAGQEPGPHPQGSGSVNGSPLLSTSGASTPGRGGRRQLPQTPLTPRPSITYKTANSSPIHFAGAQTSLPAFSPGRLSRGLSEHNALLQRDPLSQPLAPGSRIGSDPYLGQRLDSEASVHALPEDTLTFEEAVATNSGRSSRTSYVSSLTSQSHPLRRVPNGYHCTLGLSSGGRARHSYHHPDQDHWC
T1 sequence (P54284 whole entry partner): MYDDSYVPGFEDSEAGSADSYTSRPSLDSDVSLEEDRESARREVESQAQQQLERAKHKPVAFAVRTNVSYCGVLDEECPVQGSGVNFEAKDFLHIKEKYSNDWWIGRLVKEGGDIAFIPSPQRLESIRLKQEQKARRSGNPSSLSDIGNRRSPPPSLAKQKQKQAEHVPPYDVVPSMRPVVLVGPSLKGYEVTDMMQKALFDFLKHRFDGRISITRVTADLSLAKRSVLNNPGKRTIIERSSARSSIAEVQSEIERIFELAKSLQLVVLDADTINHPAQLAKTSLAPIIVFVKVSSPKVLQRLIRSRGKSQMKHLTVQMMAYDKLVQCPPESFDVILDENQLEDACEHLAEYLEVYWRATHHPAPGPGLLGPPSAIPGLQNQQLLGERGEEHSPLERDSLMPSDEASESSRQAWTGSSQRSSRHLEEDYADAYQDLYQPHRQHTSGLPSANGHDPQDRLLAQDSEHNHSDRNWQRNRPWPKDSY
T1 sequence (P54289 25-956 partner limits assumed): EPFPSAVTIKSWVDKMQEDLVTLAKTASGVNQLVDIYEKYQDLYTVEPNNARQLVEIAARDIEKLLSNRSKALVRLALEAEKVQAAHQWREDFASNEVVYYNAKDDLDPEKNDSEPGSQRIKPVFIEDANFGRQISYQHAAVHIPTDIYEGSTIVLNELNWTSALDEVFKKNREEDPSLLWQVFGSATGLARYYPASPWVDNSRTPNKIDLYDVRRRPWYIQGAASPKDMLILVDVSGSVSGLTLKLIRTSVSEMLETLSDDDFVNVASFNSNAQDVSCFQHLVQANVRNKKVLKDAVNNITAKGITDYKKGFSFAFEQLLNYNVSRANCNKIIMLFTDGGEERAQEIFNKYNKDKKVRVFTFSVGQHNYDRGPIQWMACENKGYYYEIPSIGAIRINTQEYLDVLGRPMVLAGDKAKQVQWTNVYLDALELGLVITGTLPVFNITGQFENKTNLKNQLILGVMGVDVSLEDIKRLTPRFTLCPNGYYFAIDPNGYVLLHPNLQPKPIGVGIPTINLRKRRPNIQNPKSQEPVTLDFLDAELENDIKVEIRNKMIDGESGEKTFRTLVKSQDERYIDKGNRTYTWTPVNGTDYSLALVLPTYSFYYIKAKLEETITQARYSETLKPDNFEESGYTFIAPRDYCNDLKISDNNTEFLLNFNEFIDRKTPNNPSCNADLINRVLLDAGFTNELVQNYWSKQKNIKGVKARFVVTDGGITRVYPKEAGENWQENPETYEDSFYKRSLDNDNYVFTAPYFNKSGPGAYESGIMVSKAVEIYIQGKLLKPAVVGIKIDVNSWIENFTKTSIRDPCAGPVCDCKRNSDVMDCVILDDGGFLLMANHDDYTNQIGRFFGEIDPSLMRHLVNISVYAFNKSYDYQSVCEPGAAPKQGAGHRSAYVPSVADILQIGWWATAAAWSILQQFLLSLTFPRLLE
T1 sequence (P54289 957-1103 partner limits assumed): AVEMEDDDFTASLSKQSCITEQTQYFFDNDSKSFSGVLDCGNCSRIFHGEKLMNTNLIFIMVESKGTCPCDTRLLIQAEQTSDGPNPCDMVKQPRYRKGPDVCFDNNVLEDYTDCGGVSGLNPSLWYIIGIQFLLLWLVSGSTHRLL

Regarding `O=C(c1cccc(C(F)(F)F)c1)N1CCC(=O)N2C[C@H](Oc3cnc(C4CC4)cn3)C[C@H]2C1` [Example 32, (8R,9aS)-8-[(5-cyclopropylpyrazin-2-yl)oxy]-2-[3-(trifluoromethyl)benzoyl]octahydro-5H-pyrrolo[1,2-a][1,4]diazepin-5-one], in experiment [1], the “% MPE” value is on record as 46%. The concentration for half-maximal inhibition (IC50) at human Cav2.2 was found to be 1720 nM. On to `O=C1CCN(Cc2ccc(OC(F)(F)F)cc2)C[C@@H]2C[C@@H](Oc3cnc(C4CC4)cn3)CN12` [Example 44, (8R,9aS)-8-[(5-cyclopropylpyrazin-2-yl)oxy]-2-[4-(trifluoromethoxy)benzyl]octahydro-5H-pyrrolo[1,2-a][1,4]diazepin-5-one], for which the “% MPE” value in experiment [1] is 48%. The IC50 on human Cav2.2 stood at 1650 nM.

With `O=C(c1ccc(C(F)(F)F)cc1)N1CCCN2C[C@H](Oc3cnc(C4CC4)cn3)C[C@H]2C1` [Example 13, [(8R,9aS)-8-[(5-cyclopropylpyrazin-2-yl)oxy]hexahydro-1H-pyrrolo[1,2-a][1,4]diazepin-2(3H)-yl][4-(trifluoromethyl)phenyl]methanone], the “% MPE” value in experiment [1] is listed as 40%. Moreover, the IC50 on human Cav2.2 stood at 880 nM. The matching figures for `O=C1CCN(c2ccc(C(F)(F)F)cn2)C[C@@H]2C[C@@H](Oc3cnc(C4CC4)cn3)CN12` [Example 47, (8R,9aS)-8-[(5-cyclopropylpyrazin-2-yl)oxy]-2-[5-(trifluoromethyl)pyridin-2-yl]octahydro-5H-pyrrolo[1,2-a][1,4]diazepin-5-one]: 73% and 2520 nM.

Take `O=C1CCN(Cc2cccc(C(F)(F)F)c2)C[C@@H]2C[C@@H](Oc3cnc(C4CC4)cn3)CN12` [Example 42, (8R,9aS)-8-[(5-cyclopropylpyrazin-2-yl)oxy]-2-[3-(trifluoromethyl)benzyl]octahydro-5H-pyrrolo[1,2-a][1,4]diazepin-5-one]: in experiment [1], the “% MPE” value is given as 27%. In addition, on human Cav2.2, the IC50 was determined as 920 nM. With `FC(F)(F)c1ccc(N2CCCN3C[C@H](Oc4cnc(C5CC5)cn4)C[C@H]3C2)nc1` [Example 19, (8R,9aS)-8-[(5-cyclopropylpyrazin-2-yl)oxy]-2-[5-(trifluoromethyl)pyridin-2-yl]octahydro-1H-pyrrolo[1,2-a][1,4]diazepane], in experiment [1], the “% MPE” value is 36%. Moreover, the IC50 on human Cav2.2 was 1210 nM. The matching figures for `O=C(c1cccc(C(F)(F)F)c1)N1CCCN2C[C@H](Oc3cnc(C4CC4)cn3)C[C@H]2C1` [Example 7, [(8R,9aS)-8-[(5-cyclopropylpyrazin-2-yl)oxy]hexahydro-1H-pyrrolo[1,2-a][1,4]diazepin-2(3H)-yl][3-(trifluoromethyl)phenyl]methanone]: 44% and 1660 nM. `O=C1CCN(c2cnc(C3CC3)cn2)C[C@@H]2C[C@@H](Oc3ccc(C(F)(F)F)cn3)CN12` [Example 51, (8R,9aS)-2-(5-cyclopropylpyrazin-2-yl)-8-{[5-(trifluoromethyl)pyridin-2-yl]oxy}octahydro-5H-pyrrolo[1,2-a][1,4]diazepin-5-one]: the 50% inhibitory concentration (IC50) at human Cav2.2 came to 7350 nM.
